Each structure is given as a SMILES string.

The subject of data set [1] is IDDM patients. The data set is described as follows: QTc interval after 3 months of s.c. C-peptide, randomised cross over study (Example 2). It counts as in vivo, human. Conditions: 6 patients with prolonged QTc interval at the outset (>420 ms), 600 nmol per 24 h s.c. in 3 doses. On the procedure: In a further study (different results from which were published in Diabetic Medicine, Vol. 17 (2000) p. 181–189, Johannson, Bo-Lennart et al.) 21 IDDM patients were monitored for 6 months according to a randomised cross over regimen wherein C-peptide was administered for 3 months and a placebo.
Further details of the study can be found in the above referenced paper in Diabetic Medicine but in summary, biosynthetic human C-peptide (Eli Lilly Co.) or a placebo comprising just the C-peptide solvent was injected sub-cutaneously 3 times per day. The total 24 h dose of C-peptide was 600 nmol (225 nmol 30 mins before breakfast, 150 nmol before dinner and 225 nmol at bedtime).
ECGs were recorded at the start of the programme and after 3 and then 6 months of the study. These recordings were then used to measure the QTc interval as described in Example 1.

Data set [2] has as its system patients with IDDM. The data set is described as follows: QTc interval during 3 h C-peptide infusion, randomised double blind study (Example 3). It counts as in vivo, human. Conditions: infused for 3 hours; NaCl placebo; FIG. 4. On the procedure: Twelve patients were investigated twice in a randomised double blind study where C-peptide or a NaCl placebo were infused for 3 hours. The same procedure as described in Example 1 was followed.

Data set [3] can be described thus: Plasma C-peptide and blood glucose levels during 3 h i.v. C-peptide infusion (Example 1). The class given is in vivo. Conditions: both sexes, human, iv, during the C-peptide infusion, 6 pico mole per kg per minute i.v. for 180 minutes, 0.11±0.02 nmol/l before the study. The text has this:
In this study 12 IDDM patients (six male and six female) with autonomic neuropathy participated in two different sessions in a randomized, double-blind study (one patient attended one time only). Their mean age was 40 and mean duration of diabetes was 21 years. In eight patients the fasting plasma C-peptide levels were below the detection limit (<0.10 nmol/l), the remaining four varied between 0.13 and 0.25 nmol/l. Eleven patients had decreased heart rate variability during deep breathing as evidence of autonomic neuropathy. On each occasion they received insulin i.v. for 9–12 hours before the study and blood glucose levels were tested every 1–2 hours during the night. The insulin infusion was adjusted to achieve euglycaemia (5–6 mmol/l). The patients were then given either saline or C-peptide i.v. for 180 minutes. 6 pico mole per kg per minute was administered.

Data set [4] has as its system IDDM patients with autonomic neuropathy. The data set can be described thus: QTc interval during 3 h i.v. C-peptide infusion, randomized double-blind study (Example 1). Conditions: during three hours of C-peptide i.v., 6 pico mole per kg per minute; basal QTc 0.429±0.004s; decreased significantly, p<0.05. It counts as in vivo, human. The procedure:
The QTc interval will vary from patient to patient but can generally be considered prolonged when it exceeds 420 ms in men and 430 ms in women. QTc is the corrected (for heart rate influence) QT interval. It is calculated according to Bazett's formula (QTc=QT/√{square root over (R)}R). QT and RR are conveniently measured using a ruler on an ECG tracing; the QT interval is measured from the beginning of the QRS complex to the end of the crossing of the isoelectric line of the T wave, see the stylised representation in FIG. 1. Any reduction in the interval can be beneficial to the patient, preferably the interval will be reduced by at least 3 ms, more preferably treatment will reduce the QTc interval by at least 5 ms, particularly preferably at least 8 ms even at least 10 ms. […]
Before and during the three hour session a complete 12 lead electrocardiogram was recorded to evaluate heart rate variability during deep breathing. […] The […] (one patient could not take part in a second session and one patient's ECG tracing was not possible to evaluate) were analyzed blindly by two persons. The RR and QT interval were measured with a ruler. […] Five intervals from the precordial leads and five intervals from the extremity leads were measured on each occasion and a mean was calculated. […]

Turning to `CC(C)C[C@H](NC(=O)[C@H](C)NC(=O)[C@H](CC(C)C)NC(=O)[C@@H]1CCCN1C(=O)[C@H](CCC(N)=O)NC(=O)[C@H](CC(C)C)NC(=O)[C@H](CO)NC(=O)CNC(=O)[C@H](C)NC(=O)CNC(=O)[C@@H]1CCCN1C(=O)CNC(=O)CNC(=O)CNC(=O)[C@H](CC(C)C)NC(=O)[C@H](CCC(=O)O)NC(=O)[C@@H](NC(=O)[C@H](CCC(N)=O)NC(=O)CNC(=O)[C@@H](NC(=O)[C@H](CCC(N)=O)NC(=O)[C@H](CC(C)C)NC(=O)[C@H](CC(=O)O)NC(=O)[C@H](CCC(=O)O)NC(=O)[C@H](C)NC(=O)[C@@H](N)CCC(=O)O)C(C)C)C(C)C)C(=O)N[C@@H](CCC(=O)O)C(=O)NCC(=O)N[C@@H](CO)C(=O)N[C@@H](CC(C)C)C(=O)N[C@@H](CCC(N)=O)C(=O)O` [C-peptide], the “QTc interval, C-peptide phase compared to placebo phase” value in data set [1] was “clear shortening of the QTc interval”. In addition, the “QTc interval during C-peptide treatment compared to placebo” value in data set [2] was “decrease in QTc interval”. Moreover, the level at time molar in data set [3] came out at 1.73 ± 0.04 nM. Moreover, the “mean QTc interval” value in data set [4] was determined as 0.422 ± 0.006 s.

Source of the values: US7214659B2, “Reduction of the electrocardiographic QT interval” (Creative Peptides Sweden AB, priority 2000, dated 2007).
